This note sets out measurements from patent US4831155A (priority 1984, dated 1989).

Like-named read-outs stand apart in the source and are kept apart here.

Data set [1] addresses T1, acetylcholinesterase originating from "Electrophorus electricus" (Electrophorus electricus, UniProt O42275). Nature of the data set: biochemical.
Data set [2] can be described thus: acute toxicity (lethal dose) in mice. Type of data set: in vivo. The note with it: mouse, in vivo, injection, determined within two hours, read-out: lethal dose 50 (LD50). As to the method:
(§1) The activity of the this product was evaluated in terms of its toxicity (lethal dose: LD) and its behavioural effects.
(§2) The experiments were conducted using male Swiss mice with a weight of about 30 g.
(§3) The acute toxic effects of the heptyl derivative were also evaluated as a comparison with the effects of physostigmine. […] Compared with physostigmine, the lethal dose 50 of the heptyl derivative is about 60 times greater, the LD50 for physostigmine being 0.6 mg/kg. The LD50 values were determined within two hours from the injection. Beyond this time, no obvious effects were observable. The LD50 values of other derivatives according to the present invention, evaluated with the same method resulted as follows: […]

In data set [3] the target is T1, acetylcholinesterase originating from "Electrophorus electricus".
Data set [4] relates to acetylcholinesterase (AchE). Nature of the data set: acetylcholinesterase (AChE) inhibition in the brain and serum after i.p. administration. Type of data set: in vivo, rats. To be noted: n=4; for AChE inhibition, brain (M ± SE) / AChE inhibition, serum (M ± SE): Table I, 10 min, salicylate. As to the method: The acetylcholinesterase (AchE) inhibition in the brain and serum was tested for the heptyl derivative in comparison with physostigmine. Both physostigmine and heptyl derivative were used in form of salycilate and dissolved in distilled water with carbossimethyl cellulose sodium salt at 2%.

In data set [5] the test system is male Swiss mice. Nature of the data set: spontaneous locomotor activity in mice (two-part cage). The data set is classed as in vivo. As to the method:
(§4) In particular, with regard to this latter aspect, an evaluation was made of the effects of the substance on spontaneous locomotor activity, and of the antagonisms of the heptyl derivative towards the central stimulating effects of anticholinergic drugs (scopolamine). An evaluation was also made of the effects of the substance on the electrocorticographic activity and on the inhibition of cerebral acetylcholinesterase (AchE) "in vivo".
as §2
The test used for measuring the spontaneous locomotor activity was that employing a cage divided into two parts.

The test system of data set [6] is cerebral acetylcholinesterase (AchE). Type of data set: in vivo, mice.
For data set [7], the system named is male Swiss mice. Nature of the data set: antagonism towards the central stimulating effects of scopolamine. The data set is classed as in vivo. The protocol: as §4, §2
At the central cholinergic antagonists exert a stimulating action on spontaneous activity, a study was carried out of the antagonism towards the stimulating effects of scopolamine (a typical anticholinergic drug which acts at the central level) by the heptyl derivative. […] These activities show the existence of antagonism towards the central effects of scopolamine, indicative of a central effect of the heptyl derivative.

Data set [8] deals with mice implanted with parietal electrodes. Nature of the data set: electrocorticographic activity. To be noted: 10 mg/kg, 15 minutes after administration. The data set is classed as in vivo. As to the method: as §4, §2
The […] was recorded by a Beckmann polygraph.

Data set [9] has as its system male Swiss mice. Description: acute toxicity (lethal dose) in mice. Type of data set: in vivo. As to the method:
as §1, §2, §3

Where [10] appears, read: bimolecular rate constant, value = ki × 10^-5.
Where [11] appears, read: first order carbamylation rate constant.
Where [12] appears, read: first order reactivation rate constant, value = k3 × 10^2.
[13] abbreviates: Table II, i.p. equiactive doses: Phys. 0.2, Hept. 1.0 mg/Kg.

T1 sequence (O42275 24-633): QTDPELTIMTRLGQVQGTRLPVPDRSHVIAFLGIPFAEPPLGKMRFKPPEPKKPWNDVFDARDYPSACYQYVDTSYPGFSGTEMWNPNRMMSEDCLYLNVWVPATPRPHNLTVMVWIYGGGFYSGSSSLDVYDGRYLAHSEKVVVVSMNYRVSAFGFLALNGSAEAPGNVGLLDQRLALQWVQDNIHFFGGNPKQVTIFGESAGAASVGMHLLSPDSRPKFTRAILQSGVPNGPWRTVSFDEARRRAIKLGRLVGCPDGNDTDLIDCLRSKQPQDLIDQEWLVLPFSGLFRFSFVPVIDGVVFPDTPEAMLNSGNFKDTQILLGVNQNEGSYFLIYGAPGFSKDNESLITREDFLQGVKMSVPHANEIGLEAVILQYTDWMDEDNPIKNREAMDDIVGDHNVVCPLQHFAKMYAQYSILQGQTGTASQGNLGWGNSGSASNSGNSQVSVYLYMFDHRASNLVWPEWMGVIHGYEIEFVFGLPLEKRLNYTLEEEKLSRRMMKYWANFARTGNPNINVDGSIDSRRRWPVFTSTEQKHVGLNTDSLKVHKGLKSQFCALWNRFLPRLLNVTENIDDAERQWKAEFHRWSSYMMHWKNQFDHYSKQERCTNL

On to `CCCCNC(=O)Oc1ccc2c(c1)[C@]1(C)CCN(C)[C@@H]1N2C` [n.butyl derivative], for which, in data set [1], the IC50 was determined as 3.5 µM and the affinity, expressed as Ki, was 0.026 µM. Further, the LD50 at 2 h in [2] is 6 mg/kg. In addition, in data set [3] (setting [10]), the “ki × 10^-5 (± S.E.)” value is 2.0 ± 0.1. Also, in data set [3] (setting [11]), the “k2 (± S.E.)” value is 6.7 ± 3.5. In addition, the “k3 × 10^2 (± S.E.)” value in [3] (setting [12]) is listed as 0.45 ± 0.14.

In data set [1], `CCCNC(=O)Oc1ccc2c(c1)[C@]1(C)CCN(C)[C@@H]1N2C` [n.Propyl-, trimethyl-1,3a,8-hexahydro-1,2,3a,8,8a-pyrrol[2,3-b]indole-5(3aS, 8aR) propylcarbamate] displayed an IC50 of 2.5 µM. Further, the “ki × 10^-5 (± S.E.)” value in data set [3] (setting [10]) was 0.9 ± 0.1.

`CCCCCCCCCCCNC(=O)Oc1ccc2c(c1)[C@]1(C)CCN(C)[C@@H]1N2C` [Undecyl-, trimethyl-1,3a,8-hexahydro-1,2,3,3a,8,8a-pyrrol[2,3-b]indole-5(3aS, 8aR) undecylcarbamate]: half-maximal inhibition in [1] (IC50) required 2.9 µM. In [3] (setting [10]), the “ki × 10^-5 (± S.E.)” value is recorded as 0.8 ± 0.1.

Take `CCN(CC)C(=O)Oc1ccc2c(c1)[C@]1(C)CCN(C)[C@@H]1N2C` [diethyl derivative, Pyrrolo [2,3-b]indol-5-ol,3,3a,8,8a-hexahydrol,3a,8-trimethyl-diethylcarbamate (ester), (3aS-cis)]: in data set [1], it took 680 µM to reach half-maximal inhibition (IC50). Further, the LD50 at 2 h in data set [2] was 38 mg/kg. For the same compound, in [3] (setting [10]), the “ki × 10^-5 (± S.E.)” value came out at 0.004.

Consider `CN(C)C(=O)Oc1ccc2c(c1)[C@]1(C)CCN(C)[C@@H]1N2C` [dimethyl derivative, Pyrrolo [2,3-b]indol-5-ol,3,3a,8,8a-hexahydro-1,3a,8-trimethyl-dimethylcarbamate (ester),(3aS-cis)], for which, in [1], the midpoint of inhibition, the IC50, lay at 3.1 µM and the Ki is 0.348 µM. Further, the median lethal dose (LD50) at 2 h in [2] was determined as 9 mg/kg. In data set [3] (setting [10]), the “ki × 10^-5 (± S.E.)” value was determined as 0.2 ± 0.05. Moreover, in data set [3] (setting [11]), the “k2 (± S.E.)” value came out at 8.8 ± 3.3. In [3] (setting [12]), the “k3 × 10^2 (± S.E.)” value was found to be 8.5 ± 1.2.

In data set [1], `CCNC(=O)Oc1ccc2c(c1)[C@]1(C)CCN(C)[C@@H]1N2C` [Ethyl-] registered an IC50 of 1 µM and a Ki of 0.13 µM. Moreover, in data set [3] (setting [10]), the “ki × 10^-5 (± S.E.)” value stood at 2.3 ± 0.1. The “k2 (± S.E.)” value in data set [3] (setting [11]) is on record as 3.5 ± 1.1. In [3] (setting [12]), the “k3 × 10^2 (± S.E.)” value is 2.5 ± 0.3.

In turn, `CCCCCCCCCNC(=O)Oc1ccc2c(c1)[C@]1(C)CCN(C)[C@@H]1N2C` [n.nonyl derivative] registered an IC50 in [1] of 1.5 µM. Further, the LD50 at 2 h in data set [2] turned out to be 50 mg/kg. Besides, the “ki × 10^-5 (± S.E.)” value in data set [3] (setting [10]) is 1.5 ± 0.1.

Take `CNC(=O)Oc1ccc2c(c1)[C@]1(C)CCN(C)[C@@H]1N2C` [Eserine, reference compound]: the “AChE inhibition, brain (M ± SE)” value in [4] (0.15 mg/kg i.p.) worked out at 39.18 ± 4.32%. Besides, in data set [4] (setting [13]), the “% AChE Inhibition, brain, 60 minutes (M ± SE)” value amounted to 12.47 ± 2.83% and the “% AChE Inhibition, brain, 120 minutes (M ± SE)” value is recorded as 3.28 ± 1.99%. In the data set with male Swiss mice [5] (doses between 0.1 and 0.3 mg/kg), the “effect on spontaneous locomotor activity (analogous to depressing effect of heptyl derivative)” value is listed as “An analogous effect”. In addition, the LD50 at 2 h in [2] turned out to be 0.6 mg/kg. Moreover, in data set [3], the “k2 (± S.E.)” value is 8.8 ± 1.0, the “k3 × 10^2 (± S.E.)” value came to 5.4 ± 0.2 and the “ki × 10^-5 (± S.E.)” value is on record as 26.6 ± 0.8. Moreover, the “effect on coloration of cerebral tissues (AchE inhibition)” value (“effect on coloration … (AchE inhibition)” for short) in [6] (0.4 and 0.5 mg/kg) was “no evident effect”.

With `CN1[C@@H]2C[C@@H](OC(=O)[C@H](CO)c3ccccc3)C[C@H]1[C@@H]1O[C@@H]12` [scopolamine, reference compound], the “increase in basic locomotor activity” value in the data set on male Swiss mice [7] (scopolamine 1 mg/kg) is recorded as 100%.

As to `CCCCCCCNC(=O)Oc1ccc2c(c1)[C@]1(C)CCN(C)[C@@H]1N2C` [heptyl derivative, trimethyl-1,3a,8-hexahydro-1,2,3,3a,8,8a-pyrrol[2,3-b]indole-5(3aS, 8aR) heptylcarbamate], in data set [4] (0.50 mg/kg i.p.), the “AChE inhibition, brain (M ± SE)” value was found to be 25.55 ± 11.64% and the “AChE inhibition, serum (M ± SE)” value was 20.85 ± 5.64%. For the same compound, in [4] (1.00 mg/kg i.p.), the “AChE inhibition, brain (M ± SE)” value turned out to be 50.00 ± 1.32% and the “AChE inhibition, serum (M ± SE)” value is given as 59.40 ± 1.99%. Also, in data set [4] (2.00 mg/kg i.p.), the “AChE inhibition, brain (M ± SE)” value was 53.62 ± 10.51% and the “AChE inhibition, serum (M ± SE)” value was found to be 67.42 ± 4.29%. In data set [4] (4.00 mg/kg i.p.), the “AChE inhibition, brain (M ± SE)” value was determined as 72.35 ± 5.92% and the “AChE inhibition, serum (M ± SE)” value is reported as 79.42 ± 2.89%. Moreover, in data set [4] (setting [13]), the “% AChE Inhibition, brain, 10 minutes (M ± SE)” value came out at 50.00 ± 1.32%; the “% AChE Inhibition, brain, 60 minutes (M ± SE)” value is recorded as 28.46 ± 9.56%; the “% AChE Inhibition, brain, 120 minutes (M ± SE)” value is recorded as 22.45± 2.54%; the “% AChE Inhibition, serum, 10 minutes (M ± SE)” value worked out at 59.40 ± 1.99%. Further, in data set [4] (setting [13]), the “% AChE Inhibition, serum, 60 minutes (M ± SE)” value is listed as 41.15 ± 4.29% and the “% AChE Inhibition, serum, 120 minutes (M ± SE)” value is on record as 21.53 ± 2.31%. Moreover, in data set [8], the electrocorticographic amplitude result was “an increase in its amplitude” and the electrocorticographic rate entry is given as “a slowing down of the electrocorticographic rate”. In [1], 1 µM corresponded to half-maximal inhibition (IC50) and the affinity corresponds to a Ki of 0.053 µM. In addition, the “reduction in locomotor activity compared with the controls” value in the data set with male Swiss mice [5] (5 mg/kg) is 25%. In the data set with male Swiss mice [5] (between 0.1 mg/kg and 3 mg/kg), the “influence on spontaneous locomotor activity” value is given as “does not influence spontaneous activity”. Further, in the data set on male Swiss mice [5] (doses higher than 3 mg/kg), the “effect on spontaneous locomotor activity” value was “a depressing effect is observed”. The LD50 at 2 h in data set [2] amounted to 35 mg/kg. In addition, the “lethal dose 100 (LD100)” value in the data set on male Swiss mice [9] (injection) worked out at 45 mg/kg. In addition, the “lethal dose 50 compared with physostigmine” value in the data set on male Swiss mice [9] (ratio to LD50 of physostigmine) is listed as “about 60 times greater”. In addition, the “antagonism of scopolamine-induced stimulation” value in the data set with male Swiss mice [7] (3 mg/kg against scopolamine 1 mg/kg) was “restored the activity to the control values”. The “effect of the dose per se” value in the data set with male Swiss mice [7] (3 mg/kg alone) was “ineffective”. Moreover, the “ki × 10^-5 (± S.E.)” value in data set [3] (setting [10]) came out at 2.8 ± 0.1. Also, the “k2 (± S.E.)” value in [3] (setting [11]) was determined as 7.2 ± 3.6. Also, the “k3 × 10^2 (± S.E.)” value in data set [3] (setting [12]) turned out to be 0.71 ± 0.08. In addition, the “effect on coloration … (AchE inhibition)” value in [6] (20 mg/kg, injected 15 minutes before sacrifice) is “evident diminution in the coloration of the cerebral tissues”. For the same compound, in data set [6] (30 mg/kg), the “duration of effect on coloration of cerebral tissues” value was “remained for more than one hour”. In addition, the “effect on coloration … (AchE inhibition)” value in data set [6] (30 mg/kg, compared with 20 mg/kg) is listed as “even more marked”.
